The values that follow come from ChEMBL document CHEMBL6153031, “Impact of the hydrophilic-lipophilic balance of free-base and Zn(II) tricationic pyridiniumporphyrins and irradiation wavelength in PDT against the melanoma cell lines” (Eur J Med Chem, 2025).

Data set [1] can be described thus: Drug uptake in human MeWo cells at 1 uM measured at 37 degC after 6 hrs by fluorescence based analysis. In kind it is ADME, cell-based.
Data set [2] in a line: Drug uptake in human HDF cells at 1 uM measured at 37 degC after 6 hrs by fluorescence based analysis. In kind it is ADME, cell-based.
Data set [3] can be described thus: Cytotoxicity against human HDF cells assessed as reduction in cell viability measured after 36 to 48 hrs by MTT assay. In kind it is toxicity, cell-based.
The nature of data set [4]: Cytotoxicity against human HDF cells assessed as reduction in cell viability incubated for 6 hrs followed by irradiation for 30 mins with light at wavelength of 643 nm and measured after 36 to 48 hrs by MTT assay. It is filed as toxicity, cell-based.
Data set [5] in a line: Cytotoxicity against human HDF cells assessed as reduction in cell viability incubated for 6 hrs followed by irradiation for 30 mins with light at wavelength of 606 nm and measured after 36 to 48 hrs by MTT assay. It is filed as toxicity, cell-based.
Data set [6] can be described thus: Cytotoxicity against human MeWo cells assessed as reduction in cell viability measured after 36 to 48 hrs by MTT assay. In kind it is toxicity, cell-based.
Data set [7] is described as follows: Phototoxicity against human MeWo cells assessed as reduction in cell viability incubated for 6 hrs followed by irradiation for 30 mins with light at wavelength of 643 nm and measured after 36 to 48 hrs by MTT assay. Conditions: light or radiation study; call rule not given here. It is filed as functional, cell-based.
Data set [8] in a line: Phototoxicity against human MeWo cells assessed as reduction in cell viability incubated for 6 hrs followed by irradiation for 30 mins with light at wavelength of 606 nm and measured after 36 to 48 hrs by MTT assay. It is filed as functional, cell-based. Conditions: light or radiation study.
Data set [9] is described as follows: Cytotoxicity against human A-375 cells assessed as reduction in cell viability measured after 36 to 48 hrs by MTT assay. In kind it is toxicity, cell-based.
The nature of data set [10]: Phototoxicity against human A-375 cells assessed as reduction in cell viability incubated for 6 hrs followed by irradiation for 30 mins with light at wavelength of 643 nm and measured after 36 to 48 hrs by MTT assay. In kind it is functional, cell-based. As to conditions: A-375, light or radiation study.
The nature of data set [11]: Phototoxicity against human A-375 cells assessed as reduction in cell viability incubated for 6 hrs followed by irradiation for 30 mins with light at wavelength of 606 nm and measured after 36 to 48 hrs by MTT assay. It is filed as functional, cell-based. As to conditions: A-375, light or radiation study.
A short description of data set [12]: Phototoxicity against human MeWo cells assessed as cell proliferation rate at 1 uM incubated for 6 hrs followed by irradiation for 30 mins with light at wavelength of 606 nm and measured after 36 to 48 hrs by MTT assay. In kind it is functional. As to conditions: light or radiation study, time 2550-3270 min, read-out: Activity.
A short description of data set [13]: Phototoxicity against human MeWo cells assessed as cell proliferation rate at 1 uM incubated for 6 hrs followed by irradiation for 30 mins with light at wavelength of 643 nm and measured after 36 to 48 hrs by MTT assay. In kind it is functional. Conditions: light or radiation study, time 2550-3270 min, read-out: Activity.
Data set [14] can be described thus: Cytotoxicity against human HDF cells assessed as cell proliferation rate at 1 uM incubated for 6 hrs followed by irradiation for 30 mins with light at wavelength of 606 nm and measured after 36 to 48 hrs by MTT assay. In kind it is toxicity, cell-based. As to conditions: time 2550-3270 min, read-out: Activity.
Data set [15] can be described thus: Cytotoxicity against human HDF cells assessed as cell proliferation rate at 1 uM incubated for 6 hrs followed by irradiation for 30 mins with light at wavelength of 643 nm and measured after 36 to 48 hrs by MTT assay. It is filed as toxicity, cell-based. As to conditions: time 2550-3270 min, read-out: Activity.
A short description of data set [16]: Phototoxicity against human MeWo cells assessed as reduction in cell proliferation at 1 uM incubated for 6 hrs followed by irradiation for 30 mins with light at wavelength of 606 nm and measured after 36 to 48 hrs by MTT assay. It is filed as functional. Conditions: light or radiation study, time 2550-3270 min.
The nature of data set [17]: Phototoxicity against human A-375 cells assessed as reduction in cell proliferation at 1 uM incubated for 6 hrs followed by irradiation for 30 mins with light at wavelength of 606 nm and measured after 36 to 48 hrs by MTT assay. In kind it is functional. As to conditions: A-375, light or radiation study, time 2550-3270 min.
Data set [18] in a line: Cytotoxicity against human HDF cells assessed as reduction in cell proliferation at 1 uM incubated for 6 hrs followed by irradiation for 30 mins with light at wavelength of 606 nm and measured after 36 to 48 hrs by MTT assay. In kind it is toxicity, cell-based. Conditions: time 2550-3270 min.
Data set [19] is described as follows: Selectivity index, ratio of IC50 for cytotoxicity against human HDF cells incubated for 6 hrs followed by irradiation for 30 mins with light at wavelength of 606 nm and measured after 36 to 48 hrs to IC50 for phototoxicity against human MeWo cells incubated for 6 hrs followed by irradiation for 30 mins with light at wavelength of 606 nm and measured after 36 to 48 hrs. As to conditions: HDF cells versus MeWo cells, read-out: Ratio IC50. In kind it is toxicity, cell-based.

A short description of data set [20]: Selectivity index, ratio of IC50 for cytotoxicity against human HDF cells incubated for 6 hrs followed by irradiation for 30 mins with light at wavelength of 606 nm and measured after 36 to 48 hrs to IC50 for phototoxicity against human A-375 cells incubated for 6 hrs followed by irradiation for 30 mins with light at wavelength of 606 nm and measured after 36 to 48 hrs. As to conditions: HDF cells versus A-375 cells, read-out: Ratio IC50. It is filed as toxicity, cell-based.

Data set [21] is described as follows: Drug uptake in cytoplasmic organelles in human MeWo cells at 5 uM incubated for 6 hrs by DIOC6(3) dye based fluorescence microscopy. In kind it is ADME, cell-based.
Data set [22] can be described thus: Drug uptake in nucleus in human MeWo cells at 5 uM incubated for 6 hrs by DIOC6(3) dye based fluorescence microscopy. In kind it is ADME, cell-based.
A short description of data set [23]: Drug uptake in cytoplasmic organelles in human HDF cells at 5 uM incubated for 6 hrs by DIOC6(3) dye based fluorescence microscopy. It is filed as ADME, cell-based.
Data set [24] is described as follows: Drug uptake in nucleus in human HDF cells at 5 uM incubated for 6 hrs by DIOC6(3) dye based fluorescence microscopy. It is filed as ADME, cell-based.

SMILES strings stand for the structures.

`CCCCCCCCCCCCCC(=O)Nc1ccc(-c2c3nc(c(-c4ccc[n+](C)c4)c4ccc([nH]4)c(-c4ccc[n+](C)c4)c4nc(c(-c5ccc[n+](C)c5)c5ccc2[nH]5)C=C4)C=C3)cc1.[Cl-].[Cl-].[Cl-]`: the Drug uptake entry in data set [1] is on record as “Active”; in [2], “Active”; in data set [21] it was “Active”; in [22] it was “Not_active”; in data set [23], “Active”; in data set [24], “Not_active”. Moreover, the IC50 in data set [3] is over 100000 nM; in [4], 780 nM; in data set [5], 4600 nM; in data set [6] it was over 100000 nM; in [7], 660 nM; in data set [8], 1440 nM. The 50% inhibitory concentration (IC50) in data set [9] is over 100000 nM; in data set [10], 90 nM; in [11] it was 310 nM. For the same compound, the growth at 1 µM stood at 60% in data set [12] and 40% in data set [13]. Moreover, the viability at 1 µM is over 80% in data set [14] and about 30% in [15]. Besides, the inhibition at 1 µM worked out at 50% in data set [16], 90% in data set [17] and 10% in data set [18]. Moreover, the selectivity ratio is 3.2 in data set [19] and 14.8 in [20].
